Values quoted from earlier work in US8470371B2, “Polymeric micellar clusters and their uses in formulating drugs” (priority 2006, dated 2013).
Each block holds one compound with its values, some of them ahead of it.

Tests used:
[1] = drug: propofol; literature
[2] = comparator amphiphiles

- Drug Concentration [1]: 38700 µg/mL
- Moles drug encapsulated per mole of polymer [1]: 0.75 [10]
Compound: 2-hydroxypropyl-β-cyclodextrin

- Log P: 1.4
Compound: C[C@]12C=CC(=O)C=C1CC[C@@H]1[C@@H]2[C@@H](O)C[C@@]2(C)[C@H]1CC[C@]2(O)C(=O)CO [Prednisolone]

Compound: CC(C)c1cccc(C(C)C)c1O [Propofol]
- Log P: 4.1

- CMC [2]: 53 µM
- HLB [2]: 16.7
Compound: polysorbate 20
